The results in this text go back to ChEMBL document CHEMBL1201862, “PubChem BioAssay data set” (2004).

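In this assay, cells in 96-well plates receive the compound at five concentrations for 48 hours. Endpoints are linearly interpolated between the surrounding concentrations. Here, GI50 denotes the concentration required for 50% inhibition of growth.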 Active and inactive are the calls of the source. Cut-off read from the data, not from the text of the source: active = GI50 up to about 1.1 µM and inactive = higher. Bridge positions count the residues as written; N and C are the ends. Peptide text beside a SMILES is read from it. * marks the point of attachment. Cbz = O=C(OCc1ccccc1)* Bounds are passed on as bounds.

Some test systems named below: MDA-N; HL-60; SF-268; HCT-116; COLO 205; PC-3; IGROV-1; MDA-MB-435; SF-295; UO-31; 786-0; OVCAR-4; SK-MEL-2; MDA-MB-231; M14; SK-MEL-28; UACC-257; U-251; HCC 2998; SR.
Assay in all cases: DTP human tumour cell line panel, 48 h

Usually GI50 stands for the concentration that inhibits growth by half. With `CNC(=O)C1CCCCNC(=O)CCC(NC(=O)OCc2ccccc2)C(=O)N1` (stereo not drawn) (Cbz-Glu-Lys-NHMe; lactam 1-2; configuration not given here), the GI50 with MDA-N, in the experiment with HL-60, with SF-268, in the experiment with HCT-116, in the experiment with COLO 205 and in the experiment with PC-3 was > 100 µM (inactive) throughout. The GI50 in the experiment on IGROV-1, in the experiment with MDA-MB-435, in the experiment on SF-295, in the experiment on UO-31, in the experiment with 786-0 and in the experiment with OVCAR-4 was > 100 µM (inactive) each time. Also, the GI50 in the experiment on SK-MEL-2, with MDA-MB-231, with M14, in the experiment with SK-MEL-28, with UACC-257 and in the experiment with U-251 was > 100 µM (inactive) in each case.

Turning to `CCOC(=O)c1c(-c2ccc(O)c(OC)c2)c(C#N)c(=S)n(C2OC(CO)C(O)C(O)C2O)c1-c1ccccc1` (stereo not given), the GI50 in the experiment on MDA-N, with HL-60, in the experiment on HCC 2998, with SR, with SF-268 and with HCT-116 was > 100 µM (inactive) in each case. Besides, the GI50 in the experiment on COLO 205, with PC-3, in the experiment with IGROV-1, in the experiment with MDA-MB-435, in the experiment with SF-295 and in the experiment on UO-31 was > 100 µM (inactive) in each case. The GI50 in the experiment with 786-0, in the experiment on OVCAR-4, in the experiment on M14, in the experiment on SK-MEL-28, with UACC-257 and with U-251 was > 100 µM (inactive) each time.

With `Cc1ccc(S(=O)(=O)NC(=O)NS(=O)(=O)O)cc1`, the GI50 in the experiment with MDA-N was > 100 µM (inactive); in the experiment on HL-60, > 100 µM (inactive); in the experiment with SR, < 0.01 µM (active); in the experiment on SF-268, > 100 µM (inactive); in the experiment on HCT-116, > 100 µM (inactive); in the experiment on COLO 205, > 100 µM (inactive). Moreover, the GI50 in the experiment with PC-3, in the experiment on IGROV-1, with UO-31, in the experiment on 786-0, in the experiment on OVCAR-4 and with SK-MEL-2 was > 100 µM (inactive) throughout. The GI50 with MDA-MB-231, in the experiment with M14, in the experiment with SK-MEL-28, with UACC-257 and in the experiment on U-251 was > 100 µM (inactive) in each case.

With `CCOC(=O)C(Br)(C(N)=O)C1(O)OC(c2ccccc2)=C(Br)C1=O` (stereo not given), the GI50 in the experiment with HL-60 is 38.5 µM (inactive); in the experiment on HCC 2998 it was 20 µM (inactive); in the experiment on SR, 18.2 µM (inactive); in the experiment with SF-268 it was 22.2 µM (inactive); in the experiment with HCT-116 it was 18.2 µM (inactive); in the experiment with COLO 205, 17 µM (inactive). Also, the GI50 with PC-3 is 19.2 µM (inactive); with IGROV-1, 20.5 µM (inactive); in the experiment on MDA-MB-435, 30.5 µM (inactive); in the experiment on SF-295, > 100 µM (inactive); with UO-31 it was 21.2 µM (inactive); with 786-0, 23.3 µM (inactive). For the same molecule, the GI50 in the experiment on SK-MEL-2 was 42.3 µM (inactive); in the experiment with MDA-MB-231 it was 18.4 µM (inactive); with M14, 28.4 µM (inactive); in the experiment on SK-MEL-28, 80.9 µM (inactive); in the experiment with UACC-257, > 100 µM (inactive); in the experiment with U-251, 17.6 µM (inactive).

Turning to `O=C1c2cc(I)ccc2N2CCN=C2N1Cc1ccccc1`, the GI50 was 0.551 µM (active) in the experiment with HL-60; 84.5 µM (inactive) in the experiment with SR; > 100 µM (inactive) in the experiment with SF-268; > 100 µM (inactive) with HCT-116; > 100 µM (inactive) in the experiment on COLO 205; > 100 µM (inactive) with PC-3. Further, the GI50 in the experiment with IGROV-1 is > 100 µM (inactive); with MDA-MB-435 it was > 100 µM (inactive); with SF-295, 73.1 µM (inactive); in the experiment with UO-31, 57.4 µM (inactive); in the experiment with 786-0 it was 96.6 µM (inactive); with OVCAR-4 it was > 100 µM (inactive). For the same molecule, the GI50 is > 100 µM (inactive) in the experiment with SK-MEL-2; > 100 µM (inactive) in the experiment on MDA-MB-231; > 100 µM (inactive) in the experiment with M14; > 100 µM (inactive) in the experiment with SK-MEL-28; > 100 µM (inactive) in the experiment with UACC-257; 49.5 µM (inactive) in the experiment on U-251.

Consider `COC1OC(CBr)C(OC(c2ccccc2)(c2ccccc2)c2ccccc2)C(OC(c2ccccc2)(c2ccccc2)c2ccccc2)C1OC(c1ccccc1)(c1ccccc1)c1ccccc1` (stereo not given), for which the GI50 with MDA-N is 74.3 µM (inactive); in the experiment on HL-60, > 100 µM (inactive); in the experiment with HCC 2998 it was 65.2 µM (inactive); with SR, > 100 µM (inactive); in the experiment with SF-268, 63.5 µM (inactive); with HCT-116 it was 37.6 µM (inactive). Further, the GI50 in the experiment on COLO 205 is > 100 µM (inactive); in the experiment on IGROV-1 it was 78.2 µM (inactive); in the experiment with MDA-MB-435, > 100 µM (inactive); in the experiment on SF-295, 42 µM (inactive); in the experiment with UO-31, 14.3 µM (inactive); in the experiment on 786-0 it was 19.4 µM (inactive). The GI50 is 18.3 µM (inactive) in the experiment with OVCAR-4, 51.8 µM (inactive) in the experiment with M14, > 100 µM (inactive) in the experiment on SK-MEL-28 and > 100 µM (inactive) in the experiment with UACC-257.

As for `Oc1ccc(/N=C/c2ccc(/C=N/c3ccc(O)cc3)cc2)cc1`, the GI50 in the experiment on SR was 6.44 µM (inactive); with SF-268, 15.5 µM (inactive); in the experiment with HCT-116, 14.8 µM (inactive); with COLO 205, 18.5 µM (inactive); in the experiment with PC-3, 16.3 µM (inactive); in the experiment on IGROV-1, 20 µM (inactive). Moreover, the GI50 was 16.3 µM (inactive) in the experiment on MDA-MB-435; 16.8 µM (inactive) in the experiment with SF-295; 15.2 µM (inactive) with UO-31; 15.3 µM (inactive) in the experiment on 786-0; 14.5 µM (inactive) with OVCAR-4; 21.2 µM (inactive) with SK-MEL-2. Further, the GI50 is 14.2 µM (inactive) with MDA-MB-231; 17.1 µM (inactive) in the experiment with M14; 18.8 µM (inactive) in the experiment with SK-MEL-28; 16.8 µM (inactive) in the experiment on UACC-257; 14.5 µM (inactive) in the experiment with U-251.

Consider `COc1cc(N2C(=O)C(=O)C3(CCCCC3)C2=O)cc(OC)c1OC`, for which the GI50 with MDA-N, in the experiment on HL-60, in the experiment on HCC 2998, with SR, with SF-268 and in the experiment with HCT-116 was > 100 µM (inactive) throughout. Moreover, the GI50 with COLO 205 is > 100 µM (inactive); in the experiment on PC-3, > 100 µM (inactive); in the experiment on MDA-MB-435, > 100 µM (inactive); in the experiment on SF-295 it was > 100 µM (inactive); in the experiment on UO-31, 73.3 µM (inactive); in the experiment with 786-0, > 100 µM (inactive). Moreover, the GI50 in the experiment on OVCAR-4, in the experiment on SK-MEL-2, with M14, in the experiment with SK-MEL-28, with UACC-257 and in the experiment with U-251 was > 100 µM (inactive) in each case.

As to `CC(=O)Oc1ccc(C)c2c1[C@H]1CC[C@]3(C)[C@@H](OC(C)=O)CC[C@H]3[C@@H]1CC2`, the GI50 is 18.5 µM (inactive) in the experiment with MDA-N; 20.7 µM (inactive) in the experiment on HL-60; 18 µM (inactive) with HCC 2998; 34.1 µM (inactive) in the experiment on SR; 26.7 µM (inactive) with SF-268; 17 µM (inactive) with HCT-116. Moreover, the GI50 with IGROV-1 was 18.7 µM (inactive); with MDA-MB-435, 17.9 µM (inactive); in the experiment on SF-295 it was 23.9 µM (inactive); in the experiment on UO-31, 39.3 µM (inactive); with 786-0, 21.3 µM (inactive); with MDA-MB-231, 18.2 µM (inactive). For the same molecule, the GI50 with M14 was 17.5 µM (inactive); in the experiment with SK-MEL-28, 17.3 µM (inactive); with UACC-257 it was 17.9 µM (inactive); in the experiment on U-251, 15.2 µM (inactive).

Turning to `O=C1Cc2cc3ccccc3nc2-c2ccccc2N1`, the GI50 with HL-60 is > 100 µM (inactive); in the experiment on HCC 2998 it was 31.4 µM (inactive); with SF-268, 81.5 µM (inactive); in the experiment with HCT-116, 23.9 µM (inactive); with COLO 205, > 100 µM (inactive); in the experiment with PC-3, > 100 µM (inactive). The GI50 was > 100 µM (inactive) in the experiment with IGROV-1; > 100 µM (inactive) in the experiment on MDA-MB-435; 85.5 µM (inactive) with SF-295; 35.4 µM (inactive) in the experiment on UO-31; 35.1 µM (inactive) with 786-0; 45.6 µM (inactive) with OVCAR-4. For the same molecule, the GI50 in the experiment on SK-MEL-2 was > 100 µM (inactive); in the experiment with MDA-MB-231, 20.5 µM (inactive); in the experiment on M14, > 100 µM (inactive); with SK-MEL-28 it was > 100 µM (inactive); with UACC-257, 99.1 µM (inactive); in the experiment on U-251, 60 µM (inactive).

Regarding `OCCNC1=Nc2ccc(Cl)cc2C(=S)N2CSC[C@@H]12`, the GI50 in the experiment with HCC 2998, with SR, in the experiment on SF-268, in the experiment with HCT-116, in the experiment on COLO 205 and in the experiment with PC-3 was > 100 µM (inactive) throughout. Also, the GI50 with MDA-MB-435, with SF-295, with UO-31, in the experiment on 786-0, in the experiment on OVCAR-4 and with SK-MEL-2 was > 100 µM (inactive) each time. Further, the GI50 with MDA-MB-231, in the experiment on M14, with SK-MEL-28 and with U-251 was > 100 µM (inactive) each time.
